Test results reported in article PMC11995222, “Synthesis and Evaluation of Thiazolidinone-Isatin Hybrids for Selective Inhibition of Cancer-Related Carbonic Anhydrases” (ACS Medicinal Chemistry Letters, 2025).
Entries after “also recorded” stand apart in the source; their conditions may differ.

Assays:
[1] = Cellular toxicity assay (MTT); type: cell-based, human; details: human, HuH-7 cells, MTT
HuH-7 cells = assay: Cellular toxicity assay (MTT); type: cell-based, human; details: HuH-7 cells, 24, 48 and 72 h, up to 100 µM

Compound | CC50 at 24 h ([1]; 24h) [µM] | CC50 at 48 h ([1]; 48h) [µM] | CC50 at 72 h ([1]; 72h) [µM] | viability at 24 h, 100 µM ([1]; 24h, highest concentration (100 µM), read-out: Percentage of HuH-7 cells viability at the highest compound concentration tested, 24h) [%] | viability at 48 h, 100 µM ([1]; 48h, highest concentration (100 µM), read-out: Percentage of HuH-7 cells viability at the highest compound concentration tested, 48h) [%] | viability at 72 h, 100 µM ([1]; 72h, highest concentration (100 µM), read-out: Percentage of HuH-7 cells viability at the highest compound concentration tested, 72h) [%] | toxicity (in words) (HuH-7 cells)
CC[C@@]1(O)C(=O)OCc2c1cc1n(c2=O)Cc2cc3ccccc3nc2-1 [Camptothecin, reference compound] | > 10 | 8.5 ± 0.9 | 0.5 ± 0.02 | – | – | – | –
NS(=O)(=O)c1ccc(/N=C2\S/C(=C3\C(=O)Nc4c(F)cccc43)C(=O)N2C2CC2)cc1 [compound 3h] | > 100 | > 100 | > 100 | 70 | 60 | 60 | weak toxicity; also recorded: nontoxic
